{"source": "patent US20130267494A1", "about": "“1,4-OXAZEPANE DERIVATIVES” (priority 2010, published 2013)", "tested_on": "SD female rats", "assay": "Measurement of urethral resistance increasing effect (leak point pressure, intravenous administration)", "format": "in vivo, rat", "details": "for urethral resistance increasing effect (cmH2O): SD female rats", "protocol": "The urethral resistance increasing effect in rat was measured by a modified method of Matsumoto et al. (WO2009/063992) as follows. That is, SD female rats (CLEA Japan, Inc.) were anesthetized with isoflurane (1.0%; Abbott), and the spinal cord was transected at Th8-9 to avoid the voiding reflex. After laparotomy, an intravesical pressure measurement catheter and a saline infusion catheter (PE-100; Clay Adams) were inserted into the bladder. Thereafter, the abdomen of the rat was closed with aronalpha A “Sankyo” (Daiichi Sankyo). The rat with an inserted catheter was placed in a Bollman cage (KN-326 Bollman cage TYPE III; Natsume). The intravesical pressure measurement catheter was connected to a computer via a pressure transducer (REF685640; Nihon Koden), an amplifier (RPM-6008M; Nihon Koden), and a multi-channel data analyzer (MP150; Biopack), and changes in the intravesical pressure were recorded on a hard disc at a frequency of 100 samples/sec. The saline infusion catheter was connected to a 50 mL syringe (Terumo) filled with saline colored with Evans Blue (Wako). The saline was infused into the bladder from the 50 mL syringe filled with saline at a rate of 0.1 mL/sec by using an infusion pump (Kds100; KD Scientific). When the saline leaked from the urethral orifice, infusion was discontinued, and the saline in the bladder was released. The maximum pressure observed during infusion of saline into the bladder and leakage thereof was taken as an LPP (Leak point pressure) value. The measurement was repeated until the LPP value was stabilized, and an average of continuous three stable LPP values was taken as the result. […] The LPP value (Pre value) was measured, a drug was intravenously administered, and the measurement of LPP value (Post value) was again started 10 min after administration. […]\nThe compound of Example 6 (0.3 mg/kg), the compound of Example 6 (1.0 mg/kg) and the vehicle were administered to the rats, and the urethral resistance increasing effect was measured by the aforementioned method.", "note": "Structures can show the parent of a compound that is named as a salt."}
{"molecule": "CC(=O)NC[C@H]1CNCCO[C@@H]1c1ccc(Cl)c(Cl)c1", "note": "(racemic) [Example 6, N-{[(6RS,7SR)-7-(3,4-dichlorophenyl)-1,4-oxazepan-6-yl]methyl}acetamide monohydrochloride]", "values": [{"measurement": "urethral resistance increasing effect (cmH2O)", "setting": "dose 0.3 mg/kg", "value": "12.8 ± 1.1", "unit": "cmH2O"}, {"measurement": "urethral resistance increasing effect (cmH2O)", "setting": "dose 1.0 mg/kg", "value": "19.1 ± 1.8", "unit": "cmH2O"}, {"measurement": "urethral resistance increasing effect (LPP Post value minus Pre value) compared to vehicle", "setting": "spinal cord-transected SD female rats, intravenous 0.3 and 1.0 mg/kg, LPP measured from 10 min after administration, Williams' test", "value": "dose-dependent and significant urethral resistance increasing effect"}]}
